Test results published in patent publication US5637591A, “Antimicrobial and anticollagenase activity of phenazine-5, 10-dioxide and derivatives” (Fuji ImmunoPharmaceuticals Corp., priority 1995, dated 1997).
Converted amounts (≈) assume the structure as drawn. Read-outs that look alike come from different tables or passages of the source.

Assays:
Fusobacterium nucleatum = test: anaerobic liquid culture growth inhibition, OD 650 nm; type: cell-based; settings: anaerobic overnight, OD 650 nm, read-out: IC50 Fusobacterium nucleatum
Streptococcus faecalis = test: IC90 in plating medium, 24-well plates; type: cell-based; settings: Enterococcus faecalis
Procedure: (§1) Drug solutions were mixed with plating medium to produce a range of final drug concentrations. Media with drug were plated in the wells of 24-well plates. A drop of bacterial suspension containing 2-5×10^2 CFU was placed on each well. Plates were incubated overnight at 37° C.
(§2) The concentration of the compound necessary to reduce viability of each micro-organism by 90% (inhibitory concentration 90%=IC90) is reported in Table 3 as μg/ml. Bacterial strains are listed in order of decreasing susceptibility to 2-aminophenazine-5,10-dioxide.

Enterobacter cloacae = test: IC90 in plating medium, 24-well plates; type: cell-based
Procedure: as §1, §2

Corynebacterium xerosis = test: IC90 in plating medium, 24-well plates; type: cell-based
Procedure: as §1, §2

Bacillus cereus = test: IC90 in plating medium, 24-well plates; type: cell-based; settings: 90% inhibition of growth, overnight 37° C.
Procedure: as §1, §2

[1] = system: Porphyromonas gingivalis 2561; test: anaerobic liquid culture growth inhibition, OD 650 nm; type: cell-based; settings: Porphyromonas gingivalis, 2561; anaerobic overnight, OD 650 nm; read-out: IC50 Porphyromonas gingivalis 2561
[2] = system: Fusobacterium necrophorum; test: as above; type: cell-based; settings: anaerobic overnight, OD 650 nm, read-out: IC50 Fusobacterium necrophorum
[3] = oral bioavailability in rats (AUC versus intravenous); settings: rat, in vivo, rats; for bioavailability: compared to 10 mg/kg IV, read-out: F (Bioavailability)
Procedure: The bioavailibility of orally delivered substituted phenazine-5,10-dioxideswas measured because oral delivery also can comprise systemic administration. The bioavailibility was assessed for the phenazine-5,10-dioxide derivative, 2-aminophenazine-5,10-dioxide administered by oral gavage to rats. Vehicles and dose levels are detailed in Table 9. Calculations of bioavailability (F) following oral administration were made based on area under the curve (AUC) calculations and comparsion with intravenous administration.

Bacteroides levii = test: anaerobic liquid culture growth inhibition, OD 650 nm; type: cell-based; settings: Porphyromonas levii; anaerobic overnight, OD 650 nm; read-out: IC50 Bacteroides levii
Clostridium perfringens = test: microbe, parasite or virus in culture; type: cell-based; settings: read-out: IC50 Clostridium perfringens
[4] = system: Porphyromonas gingivalis RB-22D-1; test: anaerobic liquid culture growth inhibition, OD 650 nm; type: cell-based; settings: RB22D1, anaerobic overnight, OD 650 nm, read-out: IC50 Porphyromonas gingivalis RB-22D-1
[5] = system: Peptostreptococcus anaerobius; test: as above; type: cell-based; settings: anaerobic overnight, OD 650 nm, read-out: IC50 Peptostreptococcus anaerobius
Bacteroides fragilis = test: as above; type: cell-based; settings: anaerobic overnight, OD 650 nm, read-out: IC50 Bacteroides fragilis
[6] = system: P. gingivalis strain 2561; test: minimum inhibitory concentration by addition to plating medium; type: cell-based; settings: for MIC: Porphyromonas gingivalis, 2561, 168 h, read-out: P. gingivalis MIC
Procedure: (§3) Solutions of the agents were tested for activity against Escherichia coli strain DH5α by a zone inhibition method, and against P. gingivalis strain 2561 by addition to plating medium to determine minimum inhibitory concentrations (M/C). For the zone inhibition study, a suspension of E. coli was spread on the surface of an agar plate. A 3 mm diameter paper disk was placed on the seeded agar surface, and 10 μl of solution of each compound formulated at 1 mg/ml was added to the disk. Plates were incubated overnight at 37° C. The radius of the zone of inhibition was measured from the center of the disk to the edge of the E. coli bacterial lawn. For determination of MIC, drug solutions were mixed with plating medium to produce a range of final drug concentrations. Media with drug were plated in the wells of 24-well plates. A drop of bacterial suspension containing 2-5×10^2 CFU P. gingivalis was placed on each well. Plates were incubated 1 week in an anaerobic chamber at 37° C.

[7] = system: Escherichia coli strain DH5α; test: zone inhibition method on agar plate; type: cell-based; settings: Escherichia coli; 10 μl of 1 mg/ml on 3 mm paper disk, overnight 37° C.; radius from center of disk; read-out: E. coli Clear Zone
Procedure: as §3

[8] = po, 50 mg/kg, 50 mg/kg oral, 2% Brij35/water
[9] = po, 50 mg/kg, 50 mg/kg oral, 10% Brij35/Mineral oil
[10] = po, 50 mg/kg, 50 mg/kg oral, 10% Brij35/water
[11] = po, 50 mg/kg, 50 mg/kg oral, water
[12] = po, 60 mg/kg, 60 mg/kg oral, Cremaphor
[13] = po, 100 mg/kg, 100 mg/kg oral, Arlacel 83
[14] = po, 100 mg/kg, 100 mg/kg oral, Encapsin CD
[15] = po, 100 mg/kg, 100 mg/kg oral, PEG (Polyethyleneglycol)

## Nc1ccc2c(c1)[n+]([O-])c1ccccc1[n+]2[O-] [2-aminophenazine-5,10-dioxide]
Fusobacterium nucleatum
  IC50: 10 µg/mL (≈ 44 µM)
Streptococcus faecalis
  IC90: 5 µg/mL (≈ 22 µM)
Enterobacter cloacae
  IC90: > 10 µg/mL
Corynebacterium xerosis
  IC90: 1.25 µg/mL (≈ 5.5 µM)
Bacillus cereus
  IC90: 0.31 µg/mL (≈ 1.36 µM)
[1]
  IC50: 0.04 µg/mL (≈ 0.176 µM)
[2]
  IC50: 0.03 µg/mL (≈ 0.132 µM)
[3]; iv, 10 mg/kg, 10 mg/kg IV administration
  AUC: 390 ng·h/mL
[3]; [8]
  AUC: 1480 ng·h/mL
  bioavailability: 76%
[3]; [9]
  AUC: 2380 ng·h/mL
  bioavailability: 120%
[3]; [10]
  AUC: 1250 ng·h/mL
  bioavailability: 64%
[3]; [11]
  AUC: 1740 ng·h/mL
  bioavailability: 89%
[3]; [12]
  AUC: 103 ng·h/mL
  bioavailability: 4%
[3]; [13]
  AUC: 2630 ng·h/mL
  bioavailability: 67%
[3]; [14]
  AUC: 3520 ng·h/mL
  bioavailability: 90%
[3]; [15]
  AUC: 3940 ng·h/mL
  bioavailability: 100%
Bacteroides levii
  IC50: 0.03 µg/mL (≈ 0.132 µM)
Clostridium perfringens
  IC50: 1 µg/mL (≈ 4.4 µM)
[4]
  IC50: 0.12 µg/mL (≈ 0.528 µM)
[5]
  IC50: 0.06 µg/mL (≈ 0.264 µM)
Bacteroides fragilis
  IC50: 1 µg/mL (≈ 4.4 µM)
[6]; MIC on a molar basis
  MIC: 9 nM
[6]; complete inhibition of growth, 1 week anaerobic, 37° C.
  MIC: 0.002 µg/mL
[6]; molar basis
  concentration range of activity against P. gingivalis: nanomolar concentration range
[6]; weight-concentration basis
  activity greater than Tetracycline against P. gingivalis: more than 100 fold
[7]
  zone of inhibition at 1000 µg/mL: 32 mm
